From patent publication US20010011081A1, “Pharmaceutical composition comprising L- carnitine or alkanoyl L-carnitine for the prevention and treatment of diseases brought about by lipid metabolism disorders” (Sigma-Tau Industrie Parmaceutiche Riunite S.p.A., priority 1995, published 2001)
“Also recorded” adds a separate entry of the source.

Experiments:
[1] = system: experimentally obese rats; assay: Tests in experimentally obese rats on a lipogenic diet for fifteen days (food consumption, body weight, serum triglycerides, epididymal fat); format: in vivo, Wistar rats; conditions: for MEAN DAILY FOOD CONSUMPTION (g) PER ANIMAL After 15 days / MEAN DAILY FOOD CONSUMPTION (g) PER ANIMAL Before treatment / Final body weight increase (g) AFTER 15 DAY-TREATMENT / SERUM Triglycerides AFTER 15 DAY-TREATMENT / Epididimal fat AFTER 15 DAY-TREATMENT: lipogenic diet
Method: Male Wistar rats aged about 2 months were fed on a lipogenic diet (50% glucose, 20% casein, 4% cellulose, 5% salt mixture, 1% hazel nut oil, 18% starch, 1% vitamin mixture).
This diet was administered for fifteen days consecutively to different groups of rats, one of which served as a control group, whereas in the other groups the diet was administered together with calcium hydroxycitrate (1%-2%) or Garcinia cambogia extract (2%-4%) or L-carnitine (2%-4%) or acetyl L-carnitine or propionyl L-carnitine at the same doses, or together with various combinations of these products at the same doses. At the end of the fifteenth day of treatment, food consumption was evaluated in treated rats vs. controls and increases in body weight and in serum triglycerides and epididymal fat were measured.

[2] = system: fructose-induced hypertriglyceridaemia; assay: Experimental hypertriglyceridaemia test (oral fructose); format: in vivo, Wistar rats; conditions: for EXPERIMENTALLY-INDUCED HYPERTRIGYCERIDAEMIA (serum triglycerides): 5 days before and two hours after 3 g fructose
Method: In these tests, male Wistar rats serum triglyceride elevation was induced experimentally by means of the oral administration of fructose according to the method disclosed by L. A. V. Carlson (J. Atheroscler. Res. 8, 667, 1968; Atherosclerosis 16, 349, 1972). In the 5-day period prior to administration of 3 g of fructose, the rats, divided into groups, were treated with L-carnitine or its derivatives or with calcium hydroxycitrate or Garcinia cambogia extract at different doses, or with various combinations of these products.
The administration of these products was then repeated two hours after administration of fructose, and 5 hours later all animals were sacrificed. Triglyceride assay was then performed according to the method of R. K. Donabedian (Clin. Chem 20, 632, 1974).

[3] = system: Wistar rats with hypercholesterolaemia induced by diet; assay: Experimental hypercholesterolaemia test (diet-induced, six weeks); format: in vivo; conditions: serum
Method: The results of tests conducted in Wistar rats with hypercholesterolaemia induced by diet according to the method described by C. […] Treatment both with L-carnitine and with calcium hydroxycitrate or with Garcinia cambogia extract, or with a combination of these products, was initiated together with a hypercholesterolaemia-inducing diet and continued for six weeks consecutively. At the end of this period, the assay was performed on the serum of the control animals and on that of the treated animals according to the method described by P. Roschlan (Clin. Chem. Clin. Biochem. 12, 403, 1975).

[4] = system: atherosclerotic vascular lesions; assay: Experimental atherosclerosis test (atherogenic diet for six weeks); format: in vivo, Wistar rats
Text: Also in atherosclerotic vascular lesions induced experimenatlly according to the method of M. R. Malinow (Atherosclerosis 48, 105, 1983), with administration of an atherogenic diet (24% casein, 10% cotton oil, 5% salt, 60% sugar, 1% cholesterol, Vit D2 200 mUST/g of diet) for six weeks consecutively to different groups of male Wistar rats, it has been shown that the combination of carnitines plus calcium hydroxycitrate or Garcinia cambogia extract is capable of substantially potentiating the anti-atherogenic effect.
This was assessed by measuring the thickness of the abdominal aorta and the intensity of staining induced by Sudan IV using a scoring system from 1 to 5, according to degree of severity.

[5] = fifteen days of treatment on a lipogenic diet
[6] = g 1/100 g diet, listed as calcium hydroxycitrate
[7] = g 2/100 g diet, listed as calcium hydroxycitrate

CCC(=O)O[C@H](CC(=O)[O-])C[N+](C)(C)C [Propionyl L-carnitine]
MEAN DAILY FOOD CONSUMPTION (g) PER ANIMAL After 15 days ([1]; g 2/100 g diet): 17.1 ± 0.38 g | MEAN DAILY FOOD CONSUMPTION (g) PER ANIMAL After 15 days ([1]; g 4/100 g diet): 18.5 ± 0.48 g | MEAN DAILY FOOD CONSUMPTION (g) PER ANIMAL Before treatment ([1]; g 2/100 g diet): 17.7 ± 0.56 g | MEAN DAILY FOOD CONSUMPTION (g) PER ANIMAL Before treatment ([1]; g 4/100 g diet): 18.2 ± 0.44 g | change in daily food consumption (in words) [1, 5]: No changes compared to controls; also recorded: non-significant changes | Final body weight increase (g) AFTER 15 DAY-TREATMENT ([1]; g 2/100 g diet): 62.4 ± 3.9 g | SERUM Triglycerides AFTER 15 DAY-TREATMENT ([1]; g 2/100 g diet): 88.4 ± 8.16 mg/100 ml | Epididimal fat AFTER 15 DAY-TREATMENT ([1]; g 4/100 g diet): 4.0 ± 5.6 g | Final body weight increase (g) AFTER 15 DAY-TREATMENT ([1]; g 4/100 g diet): 58.7 ± 3.7 g | SERUM Triglycerides AFTER 15 DAY-TREATMENT ([1]; g 4/100 g diet): 82.7 ± 6.6 mg/100 ml | EXPERIMENTALLY-INDUCED HYPERTRIGYCERIDAEMIA (serum triglycerides) ([2]; g 0.5/Kg): 184.2 ± 6.8 mg/100 ml | EXPERIMENTALLY-INDUCED HYPERTRIGYCERIDAEMIA (serum triglycerides) ([2]; g 1/Kg): 180.4 ± 7.9 mg/100 ml | EXPERIMENTALLY-INDUCED HYPERCHOLESTEROLEMIA, TOTAL CHOLESTEROL ([3]; g 2/100 g diet): 250.6 ± 10.1 mg/dL | EXPERIMENTALLY-INDUCED HYPERCHOLESTEROLEMIA, TOTAL CHOLESTEROL ([3]; g 4/100 g diet): 235.3 ± 9.6 mg/dL

Calcium hydroxycitrate
MEAN DAILY FOOD CONSUMPTION (g) PER ANIMAL After 15 days ([1]; g 1/100 g diet): 17.1 ± 0.35 g | MEAN DAILY FOOD CONSUMPTION (g) PER ANIMAL After 15 days [1, 6]: 17.1 g | MEAN DAILY FOOD CONSUMPTION (g) PER ANIMAL After 15 days ([1]; g 2/100 g diet): 15.1 ± 0.46 g | MEAN DAILY FOOD CONSUMPTION (g) PER ANIMAL After 15 days [1, 7]: 15.1 g | MEAN DAILY FOOD CONSUMPTION (g) PER ANIMAL Before treatment ([1]; g 1/100 g diet): 19.2 ± 0.65 g | MEAN DAILY FOOD CONSUMPTION (g) PER ANIMAL Before treatment [1, 6]: 19.2 g | MEAN DAILY FOOD CONSUMPTION (g) PER ANIMAL Before treatment ([1]; g 2/100 g diet): 18.8 ± 0.44 g | MEAN DAILY FOOD CONSUMPTION (g) PER ANIMAL Before treatment [1, 7]: 18.8 g | body weight gain (in words) [1, 5]: reduced | change in daily food consumption (in words) [1, 5]: substantial reduction | Epididimal fat AFTER 15 DAY-TREATMENT ([1]; g 1/100 g diet): 3.91 ± 0.36 g | Final body weight increase (g) AFTER 15 DAY-TREATMENT ([1]; g 1/100 g diet): 46.6 ± 4.1 g | SERUM Triglycerides AFTER 15 DAY-TREATMENT ([1]; g 1/100 g diet): 76.84 ± 6.9 mg/100 ml | Epididimal fat AFTER 15 DAY-TREATMENT ([1]; g 2/100 g diet): 3.32 ± 0.39 g | Final body weight increase (g) AFTER 15 DAY-TREATMENT ([1]; g 2/100 g diet): 38.9 ± 3.8 g | SERUM Triglycerides AFTER 15 DAY-TREATMENT ([1]; g 2/100 g diet): 73.66 ± 7.1 mg/100 ml | EXPERIMENTALLY-INDUCED HYPERTRIGYCERIDAEMIA (serum triglycerides) ([2]; g 0.5/Kg): 170.6 ± 8.5 mg/100 ml | EXPERIMENTALLY-INDUCED HYPERTRIGYCERIDAEMIA (serum triglycerides) ([2]; g 1/Kg): 145.5 ± 8.5 mg/100 ml | fructose-induced hypertriglyceridaemia (in words) ([2]; rat, in vivo): reduced | severity of atherosclerotic lesions / anti-atherogenic effect (abdominal aorta thickness, Sudan IV staining score 1 to 5) [4]: capable of reducing the severity of the atherosclerotic lesions | EXPERIMENTALLY-INDUCED HYPERCHOLESTEROLEMIA, TOTAL CHOLESTEROL ([3]; g 1/100 g diet): 196.6 ± 9.6 mg/dL | EXPERIMENTALLY-INDUCED HYPERCHOLESTEROLEMIA, TOTAL CHOLESTEROL ([3]; g 2/100 g diet): 180.5 ± 8.1 mg/dL | total cholesterol values (in words) [3]: fair degree of lowering

CC(=O)O[C@H](CC(=O)[O-])C[N+](C)(C)C [Acetyl L-carnitine]
MEAN DAILY FOOD CONSUMPTION (g) PER ANIMAL After 15 days ([1]; g 2/100 g diet): 18.4 ± 0.44 g | MEAN DAILY FOOD CONSUMPTION (g) PER ANIMAL After 15 days ([1]; g 4/100 g diet): 18.8 ± 0.57 g | MEAN DAILY FOOD CONSUMPTION (g) PER ANIMAL Before treatment ([1]; g 2/100 g diet): 18.6 ± 0.39 g | MEAN DAILY FOOD CONSUMPTION (g) PER ANIMAL Before treatment ([1]; g 4/100 g diet): 18.2 ± 0.41 g | change in daily food consumption (in words) [1, 5]: No changes compared to controls; also recorded: non-significant changes | Final body weight increase (g) AFTER 15 DAY-TREATMENT ([1]; g 2/100 g diet): 60.4 ± 7.1 g | SERUM Triglycerides AFTER 15 DAY-TREATMENT ([1]; g 2/100 g diet): 95.81 ± 8.2 mg/100 ml | Final body weight increase (g) AFTER 15 DAY-TREATMENT ([1]; g 4/100 g diet): 60.1 ± 6.1 g | SERUM Triglycerides AFTER 15 DAY-TREATMENT ([1]; g 4/100 g diet): 90.8 ± 7.5 mg/100 ml | EXPERIMENTALLY-INDUCED HYPERTRIGYCERIDAEMIA (serum triglycerides) ([2]; g 0.5/Kg): 191.2 ± 9.1 mg/100 ml | EXPERIMENTALLY-INDUCED HYPERTRIGYCERIDAEMIA (serum triglycerides) ([2]; g 1/Kg): 188.4 ± 5.5 mg/100 ml | EXPERIMENTALLY-INDUCED HYPERCHOLESTEROLEMIA, TOTAL CHOLESTEROL ([3]; g 2/100 g diet): 266.7 ± 7.7 mg/dL | EXPERIMENTALLY-INDUCED HYPERCHOLESTEROLEMIA, TOTAL CHOLESTEROL ([3]; g 4/100 g diet): 255.4 ± 9.4 mg/dL

C[N+](C)(C)C[C@H](O)CC(=O)[O-] [L-carnitine]
MEAN DAILY FOOD CONSUMPTION (g) PER ANIMAL After 15 days ([1]; g 4/100 g diet): 17.8 ± 0.41 g | MEAN DAILY FOOD CONSUMPTION (g) PER ANIMAL Before treatment ([1]; g 2/100 g diet): 17.3 ± 0.35 g | MEAN DAILY FOOD CONSUMPTION (g) PER ANIMAL Before treatment ([1]; g 4/100 g diet): 18.4 ± 0.61 g | change in daily food consumption (in words) [1, 5]: No changes compared to controls; also recorded: non-significant changes | Final body weight increase (g) AFTER 15 DAY-TREATMENT ([1]; g 2/100 g diet): 66.2 ± 4.9 g | SERUM Triglycerides AFTER 15 DAY-TREATMENT ([1]; g 2/100 g diet): 92.55 ± 7.7 mg/100 ml | Final body weight increase (g) AFTER 15 DAY-TREATMENT ([1]; g 4/100 g diet): 64.5 ± 5.1 g | SERUM Triglycerides AFTER 15 DAY-TREATMENT ([1]; g 4/100 g diet): 90.44 ± 6.8 mg/100 ml | EXPERIMENTALLY-INDUCED HYPERTRIGYCERIDAEMIA (serum triglycerides) ([2]; g 0.5/Kg): 190.4 ± 9.6 mg/100 ml | EXPERIMENTALLY-INDUCED HYPERTRIGYCERIDAEMIA (serum triglycerides) ([2]; g 1/Kg): 190.8 ± 8.6 mg/100 ml | severity of atherosclerotic lesions / anti-atherogenic effect (abdominal aorta thickness, Sudan IV staining score 1 to 5) [4]: capable of reducing the severity of the atherosclerotic lesions | EXPERIMENTALLY-INDUCED HYPERCHOLESTEROLEMIA, TOTAL CHOLESTEROL ([3]; g 2/100 g diet): 270.4 ± 5.1 mg/dL | EXPERIMENTALLY-INDUCED HYPERCHOLESTEROLEMIA, TOTAL CHOLESTEROL ([3]; g 4/100 g diet): 260.6 ± 4.4 mg/dL
